Measured values: the OligoGym collection
Oligonucleotides are written 5' to 3', each unit as a sugar letter and its base; * is a phosphorothioate linkage, no mark a phosphodiester; rarer units and linkages stand in square brackets, end groups in braces. Plain capitals give the bases only. Oligonucleotides are given in HELM: sugar(base)linkage, 5' to 3'; d 2'-deoxyribose, r ribose, m 2'-O-methylribose, p phosphate. ss, as = sense and antisense strand; d = 2'-deoxy (DNA); r = 2'-OH (RNA)

molecular target: UBE2G1; test: reporter assay of Huesken 2005; settings: siRNA
Further: test concentration or dose not given here.

Going from “sense rGrArUrArArGrUrArUrGrGrUrUrArUrGrArArAdTdT / antisense rUrUrUrCrArUrArArCrCrArUrArCrUrUrArUrCdTdT” to “sense rUrArUrCrCrArCrArCrUrGrUrGrGrArArArCrCdTdT / antisense rGrGrUrUrUrCrCrArCrArGrUrGrUrGrGrArUrAdGdG”, the normalised inhibition (eCFP-eYFP dual reporter) falls from 87.7% to 41.2%.

Compared with “sense rGrArArGrUrCrCrUrUrArUrUrArUrUrGrGrCrCdTdT / antisense rGrGrCrCrArArUrArArUrArArGrGrArCrUrUrCdCdC”, “sense rGrArUrArCrArCrUrUrUrArUrGrArArGrGrUrGdTdT / antisense rCrArCrCrUrUrCrArUrArArArGrUrGrUrArUrCdTdG” is lower in normalised inhibition (eCFP-eYFP dual reporter): 87.6% for the first, 66% for the second.

First: sense rArArUrGrUrUrGrArUrGrCrUrGrCrGrArArArGdTdT / antisense rCrUrUrUrCrGrCrArGrCrArUrCrArArCrArUrUdAdG
Second: sense rArUrUrGrGrCrCrCrUrCrCrArGrArUrArCrArCdTdT / antisense rGrUrGrUrArUrCrUrGrGrArGrGrGrCrCrArArUdAdA
The normalised inhibition (eCFP-eYFP dual reporter) of the first is higher: 93.5% for the first, 36.1% for the second.

First: sense rGrArCrArArUrGrArUrCrUrCrUrArCrCrGrArUdTdT / antisense rArUrCrGrGrUrArGrArGrArUrCrArUrUrGrUrCdAdT
Second: sense rGrCrUrGrCrGrArArArGrArArUrGrGrArGrGrGdTdT / antisense rCrCrCrUrCrCrArUrUrCrUrUrUrCrGrCrArGrCdAdT
The normalised inhibition (eCFP-eYFP dual reporter) of the first is higher: 103% for the first, 63.8% for the second.

First: sense rUrArUrGrGrUrUrArUrGrArArArArGrCrCrArGdTdT / antisense rCrUrGrGrCrUrUrUrUrCrArUrArArCrCrArUrAdCdT
Second: sense rCrArGrArGrGrArArCrGrCrUrGrGrCrUrCrCrCdTdT / antisense rGrGrGrArGrCrCrArGrCrGrUrUrCrCrUrCrUrGdGdC
The normalised inhibition (eCFP-eYFP dual reporter) of the first is lower: 31.8% for the first, 42.5% for the second.

Going from “sense rCrCrUrGrCrUrArArUrGrUrUrGrArUrGrCrUrGdTdT / antisense rCrArGrCrArUrCrArArCrArUrUrArGrCrArGrGdTdG” to “sense rUrUrArGrUrGrUrCrArUrUrUrCrUrArUrGrCrUdTdT / antisense rArGrCrArUrArGrArArArUrGrArCrArCrUrArAdTdC”, the normalised inhibition (eCFP-eYFP dual reporter) falls from 97.5% to 54%.

Going from “sense rGrUrUrArUrGrArArArArGrCrCrArGrArGrGrAdTdT / antisense rUrCrCrUrCrUrGrGrCrUrUrUrUrCrArUrArArCdCdA” to “sense rArArArArGrCrCrArGrArGrGrArArCrGrCrUrGdTdT / antisense rCrArGrCrGrUrUrCrCrUrCrUrGrGrCrUrUrUrUdCdA”, the normalised inhibition (eCFP-eYFP dual reporter) falls from 49.3% to 32.6%.

Compared with “sense rCrUrCrCrUrArArArArUrGrArArArUrUrCrArUdTdT / antisense rArUrGrArArUrUrUrCrArUrUrUrUrArGrGrArGdGdT”, “sense rCrArUrUrArCrArGrArArArUrCrUrGrGrCrArCdTdT / antisense rGrUrGrCrCrArGrArUrUrUrCrUrGrUrArArUrGdAdA” is lower in normalised inhibition (eCFP-eYFP dual reporter): 87.9% for the first, 50.1% for the second.

Going from “sense rUrUrUrCrUrArUrUrCrUrUrCrArUrGrArGrCrCdTdT / antisense rGrGrCrUrCrArUrGrArArGrArArUrArGrArArAdTdG” to “sense rUrGrCrGrArArArGrArArUrGrGrArGrGrGrArAdTdT / antisense rUrUrCrCrCrUrCrCrArUrUrCrUrUrUrCrGrCrAdGdC”, the normalised inhibition (eCFP-eYFP dual reporter) rises from 29.5% to 72.7%.

Compared with “sense rArArArCrCrArUrCrArUrGrArUrUrArGrUrGrUdTdT / antisense rArCrArCrUrArArUrCrArUrGrArUrGrGrUrUrUdCdC”, “sense rArGrCrCrUrGrGrGrGrArArGrArUrArArGrUrAdTdT / antisense rUrArCrUrUrArUrCrUrUrCrCrCrCrArGrGrCrUdCdA” is higher in normalised inhibition (eCFP-eYFP dual reporter): 66.9% for the first, 78.6% for the second.

Compared with “sense rCrUrGrGrGrGrArArGrArUrArArGrUrArUrGrGdTdT / antisense rCrCrArUrArCrUrUrArUrCrUrUrCrCrCrCrArGdGdC”, “sense rGrArUrUrArUrCrCrCrCrUrCrCrGrArCrCrUrCdTdT / antisense rGrArGrGrUrCrGrGrArGrGrGrGrArUrArArUrCdTdT” is higher in normalised inhibition (eCFP-eYFP dual reporter): 55% for the first, 84.7% for the second.

Compared with “sense rUrGrArUrGrUrGrUrGrCrArUrUrUrCrUrArUrUdTdT / antisense rArArUrArGrArArArUrGrCrArCrArCrArUrCrAdCdC”, “sense rUrGrGrArGrArArUrUrUrArArArArGrArArArAdTdT / antisense rUrUrUrUrCrUrUrUrUrArArArUrUrCrUrCrCrAdTdT” is lower in normalised inhibition (eCFP-eYFP dual reporter): 74.8% for the first, 74.2% for the second.

First: sense rUrCrArUrGrArGrCrCrUrGrGrGrGrArArGrArUdTdT / antisense rArUrCrUrUrCrCrCrCrArGrGrCrUrCrArUrGrAdAdG
Second: sense rCrCrUrArArArArUrGrArArArUrUrCrArUrUrAdTdT / antisense rUrArArUrGrArArUrUrUrCrArUrUrUrUrArGrGdAdG
The normalised inhibition (eCFP-eYFP dual reporter) of the first is higher: 76.4% for the first, 69.6% for the second.

Going from “sense rCrArArUrGrArUrCrUrCrUrArCrCrGrArUrGrGdTdT / antisense rCrCrArUrCrGrGrUrArGrArGrArUrCrArUrUrGdTdC” to “sense rArArArGrUrUrGrCrCrCrGrCrUrGrUrGrUrArAdTdT / antisense rUrUrArCrArCrArGrCrGrGrGrCrArArCrUrUrUdTdC”, the normalised inhibition (eCFP-eYFP dual reporter) rises from 86.7% to 93.9%.

First: sense rArUrCrUrCrUrArCrCrGrArUrGrGrGrArArGrUdTdT / antisense rArCrUrUrCrCrCrArUrCrGrGrUrArGrArGrArUdCdA
Second: sense rUrUrUrCrUrGrCrArGrGrUrUrUrArArUrArGrAdTdT / antisense rUrCrUrArUrUrArArArCrCrUrGrCrArGrArArAdAdG
The normalised inhibition (eCFP-eYFP dual reporter) of the first is higher: 67.7% for the first, 51.7% for the second.

Compared with “sense rCrUrArArUrGrGrArGrArCrUrCrArCrCrUrGrCdTdT / antisense rGrCrArGrGrUrGrArGrUrCrUrCrCrArUrUrArGdGdG”, “sense rArCrArCrUrGrUrGrGrArArArCrCrArUrCrArUdTdT / antisense rArUrGrArUrGrGrUrUrUrCrCrArCrArGrUrGrUdGdG” is higher in normalised inhibition (eCFP-eYFP dual reporter): 71.9% for the first, 89.3% for the second.

Compared with “sense rGrGrCrUrUrUrUrCrUrGrCrArGrGrUrUrUrArAdTdT / antisense rUrUrArArArCrCrUrGrCrArGrArArArArGrCrCdTdT”, “sense rUrCrCrCrUrArUrCrCrArCrArCrUrGrUrGrGrAdTdT / antisense rUrCrCrArCrArGrUrGrUrGrGrArUrArGrGrGrAdGdC” is lower in normalised inhibition (eCFP-eYFP dual reporter): 83.3% for the first, 62.1% for the second.

Compared with “sense rUrUrUrArArArArGrArArArArGrUrUrGrCrCrCdTdT / antisense rGrGrGrCrArArCrUrUrUrUrCrUrUrUrUrArArAdTdT”, “sense rUrGrArUrUrArGrUrGrUrCrArUrUrUrCrUrArUdTdT / antisense rArUrArGrArArArUrGrArCrArCrUrArArUrCrAdTdG” is higher in normalised inhibition (eCFP-eYFP dual reporter): 43.5% for the first, 78.5% for the second.

Going from “sense rCrUrCrUrArCrCrGrArUrGrGrGrArArGrUrCrCdTdT / antisense rGrGrArCrUrUrCrCrCrArUrCrGrGrUrArGrArGdAdT” to “sense rUrGrCrUrGrCrGrArArArGrArArUrGrGrArGrGdTdT / antisense rCrCrUrCrCrArUrUrCrUrUrUrCrGrCrArGrCrAdTdC”, the normalised inhibition (eCFP-eYFP dual reporter) falls from 68.3% to 34.4%.

“sense rArGrArUrArGrArArArUrGrGrArGrArArUrUrUdTdT / antisense rArArArUrUrCrUrCrCrArUrUrUrCrUrArUrCrUdTdC” gave a normalised inhibition (eCFP-eYFP dual reporter) of 102%.

molecular target: UBE2N; test: reporter assay of Huesken 2005; settings: siRNA

Compared with “RNA1{r(C)p.r(A)p.r(U)p.r(C)p.r(A)p.r(A)p.r(A)p.r(G)p.r(C)p.r(C)p.r(G)p.r(A)p.r(A)p.r(C)p.r(C)p.r(A)p.r(G)p.r(A)p.r(U)p.d(T)p.d(T)}|RNA2{r(A)p.r(U)p.r(C)p.r(U)p.r(G)p.r(G)p.r(U)p.r(U)p.r(C)p.r(G)p.r(G)p.r(C)p.r(U)p.r(U)p.r(U)p.r(G)p.r(A)p.r(U)p.r(G)p.d(C)p.d(C)}$$$RNA1{StrandType:ss}|RNA2{StrandType:as}$”, “RNA1{r(A)p.r(A)p.r(U)p.r(G)p.r(U)p.r(A)p.r(G)p.r(A)p.r(C)p.r(A)p.r(A)p.r(G)p.r(U)p.r(U)p.r(G)p.r(G)p.r(G)p.r(A)p.r(A)p.d(T)p.d(T)}|RNA2{r(U)p.r(U)p.r(C)p.r(C)p.r(C)p.r(A)p.r(A)p.r(C)p.r(U)p.r(U)p.r(G)p.r(U)p.r(C)p.r(U)p.r(A)p.r(C)p.r(A)p.r(U)p.r(U)p.d(A)p.d(G)}$$$RNA1{StrandType:ss}|RNA2{StrandType:as}$” is higher in normalised inhibition (eCFP-eYFP dual reporter): 84.7% for the first, 93.8% for the second.

Compared with “RNA1{r(A)p.r(G)p.r(C)p.r(G)p.r(G)p.r(A)p.r(G)p.r(C)p.r(A)p.r(G)p.r(U)p.r(G)p.r(G)p.r(A)p.r(A)p.r(G)p.r(A)p.r(C)p.r(C)p.d(T)p.d(T)}|RNA2{r(G)p.r(G)p.r(U)p.r(C)p.r(U)p.r(U)p.r(C)p.r(C)p.r(A)p.r(C)p.r(U)p.r(G)p.r(C)p.r(U)p.r(C)p.r(C)p.r(G)p.r(C)p.r(U)p.d(A)p.d(C)}$$$RNA1{StrandType:ss}|RNA2{StrandType:as}$”, “RNA1{r(U)p.r(U)p.r(C)p.r(A)p.r(U)p.r(G)p.r(U)p.r(G)p.r(G)p.r(U)p.r(C)p.r(A)p.r(U)p.r(U)p.r(G)p.r(C)p.r(U)p.r(G)p.r(G)p.d(T)p.d(T)}|RNA2{r(C)p.r(C)p.r(A)p.r(G)p.r(C)p.r(A)p.r(A)p.r(U)p.r(G)p.r(A)p.r(C)p.r(C)p.r(A)p.r(C)p.r(A)p.r(U)p.r(G)p.r(A)p.r(A)p.d(A)p.d(A)}$$$RNA1{StrandType:ss}|RNA2{StrandType:as}$” is lower in normalised inhibition (eCFP-eYFP dual reporter): 43.9% for the first, 39.5% for the second.

With “RNA1{r(G)p.r(U)p.r(U)p.r(C)p.r(C)p.r(U)p.r(G)p.r(G)p.r(C)p.r(A)p.r(U)p.r(C)p.r(A)p.r(A)p.r(A)p.r(G)p.r(C)p.r(C)p.r(G)p.d(T)p.d(T)}|RNA2{r(C)p.r(G)p.r(G)p.r(C)p.r(U)p.r(U)p.r(U)p.r(G)p.r(A)p.r(U)p.r(G)p.r(C)p.r(C)p.r(A)p.r(G)p.r(G)p.r(A)p.r(A)p.r(C)p.d(T)p.d(G)}$$$RNA1{StrandType:ss}|RNA2{StrandType:as}$” the normalised inhibition (eCFP-eYFP dual reporter) was 78.2%.
